# Laboratory results published in patent publication US8680146B2, “Organic compounds” (Novartis AG, priority 2008, dated 2014).
# Experiment: Solubility study of FTY720 salts in various solvents
# Type: physicochemical
# Conditions: approx. values at 25° C.
# Procedure: The solubilities of various salts were assessed and are given in the table below (approx. values at 25° C., g/100 ml %): […]
Solubility in 0.1N HCl,Solubility in Acetone,Solubility in Ethanol,Solubility in Ethylacetate,Solubility in Isopropanol,Solubility in Octanol,Solubility in Water,Solubility in pH 6.88 phosphate buffer,Compound
>2 g/100 ml %,0.52 g/100 ml %,3.88 g/100 ml %,0.45 g/100 ml %,2.03 g/100 ml %,1-2 g/100 ml %,0.018 g/100 ml %,<0.001 g/100 ml %,"CCCCCCCCc1ccc(CCC(N)(CO)CO)cc1 [Free Base, 2-amino-2-[2-(4-octylphenyl)ethyl]propane-1,3-diol]"
>2 g/100 ml %,0.08 g/100 ml %,>7.94 g/100 ml %,0.03 g/100 ml %,4.51 g/100 ml %,1-2 g/100 ml %,>10 g/100 ml %,<0.001 g/100 ml %,"CCCCCCCCc1ccc(CCC(N)(CO)CO)cc1.Cl [Hydrochloride, 2-amino-2-[2-(4-octylphenyl)ethyl]propane-1,3-diol hydrochloride salt]"
